# In US20150190416A1, “FILAGGRIN PRODUCTION PROMOTER, THERAPEUTIC AGENT FOR DISEASES ASSOCIATED WITH REDUCTION IN PRODUCTION OF FILAGGRIN, AND METHOD FOR SCREENING FOR SAID THERAPEUTIC AGENT” (KYOTO UNIVERSITY, priority 2012, published 2015):
# Legend:
# GPR142 = experiment: Action on adenylate cyclase activity (cAMP) in GPR142-overexpressing HEK293T cells (Examples 8 and 9); type: cell-based, human; details: forskolin 10 μM, IBMX 1 mM
# Method: In this example, the cAMP production-suppressing effect of Compound 1 was confirmed.
# 1) 6×10^4 cells/well of HEK293T cells were plated on a collagen-coated 24-well plate, a culture medium containing DMEM medium (Invitrogen) supplemented with penicillin (50 μg/ml), streptomycin (50 μg/ml), and fetal bovine serum (FBS) (10%, v/v) was added to the plate, and the cells were cultured under the conditions of 37° C. and 5% CO2.
# 2) A GPR142PCXN mammalian expression vector was prepared in the same manner as in the step 2) of Example 7.
# 3) After culture for 1 day under the conditions of the step 1), HEK293T cells were transfected with 0.2 μg of the GPR142PCXN mammalian expression vector per well by using a transfection reagent Fugene™ HD (Promega Corporation) according to the manufacturer's protocol. As a control, cells transfected only with the PCXN mammalian expression vector were used.
# 4) After culture for 1 day after the transfection described above, 1 mM of isobutylmethylxanthine (IBMX), which was a cAMP phosphodiesterase inhibitory substance, was added to HEK293T cells, and thereafter, the cells were cultured for 10 minutes at 37° C.
# 5) Next, the medium was exchanged for the culture medium to which 0.1 nM to 1000 nM of a DMSO solution of Compound 1, 10 μM of forskolin, and 1 mM of IBMX per well were added, and the cells were further cultured for 20 minutes at 37° C. As a control, a solvent (vehicle), 10 μM of forskolin, and 1 mM of IBMX were added.
# 6) The cells cultured in the step 5) were lysed by 0.1 mol/L of HCl. The cAMP concentration within the cells was measured by using Cyclic AMP EIA Kit (Cayman Chemical Company) according to the manufacturer's protocol. The result is shown as the ratio (%) of the cAMP concentration in the cells treated with Compound 1 with respect to the cAMP concentration in the control example defined as 100%.
# In this example, the cAMP production-suppressing effect of Compound 2 or 3 was confirmed.
# HEK293T cells were cultured in the same manner as in the steps 1) to 4) of Example 8. Next, the cells were cultured in the same manner as in the step 5) of Example 8 except that, in the step 5) of Example 8, each of a methanol solution of Compound 3, a DMSO solution of Compound 2, and a DMSO solution of Comparative Compound 2 was used at 1,000 nM per well instead of Compound 1. The cAMP concentration in the cultured cells was measured in the same manner as in the step 6) of Example 8.
# FLG mRNA = FLG mRNA expression-increasing effect in NHEK cells, real-time PCR (Example 2); type: cell-based, human; details: 10 nM, with or without calcium priming
# Method: In this example, the FLG mRNA expression-increasing effect of Compound 1 or Compound 2 was confirmed by using NHEK cells.
# 1) 5×10^4 cells/well of NHEK cells (Invitrogen) were plated on a 24-well plate, and then 500 μl of a culture medium containing a medium for proliferating normal human epidermal keratinocytes (HuMedia-KG2, KURABO INDUSTRIES LTD.) supplemented with hEGF (0.1 ng/ml), insulin (10 μg/ml), hydrocortisone (0.5 μg/ml), gentamycin (50 μg/ml), amphotericin B (50 ng/ml), and bovine brain pituitary extract (BPE) (0.4%, v/v) were added to the plate, and the cells were cultured under the conditions of 37° C. and 5% CO2. Next, after culture under the conditions of the following step 2) or 3), a sample was prepared. […]
# 4) An extraction reagent (TRIzol™, Invitrogen) was used, and according to the manufacturer's protocol, total RNA was extracted from each of cells treated with the medicament (Compound 1 or Compound 2) in the steps 2) and 3). […] Next, real-time PCR was conducted by using the following primers and SYBR™ Premix Ex Taq (Takara) with a CFX96 real-time PCR instrument (Bio-Rad Laboratories, Inc.) according to the manufacturer's protocol, and the amount of FLG mRNA was measured. […]
SMILES,"cAMP production-suppressing action, in words (GPR142; GPR142-overexpressing HEK293T cells, 1,000 nM)","cAMP production (GPR142; GPR142-overexpressing HEK293T cells, 0.1 nM to 1000 nM, 20 minutes)",FLG mRNA expression (GAPDH ratio) (FLG mRNA),"decrease of cAMP production (GPR142; GPR142-overexpressing HEK293T cells, 1,000 nM, 20 minutes)"
"O=C(CCCCCN1C(=O)c2cccc3cccc(c23)C1=O)NO [Comparative Compound 2, 6-(1,3-Dioxo-1H,3H-benzo[de]isoquinolin-2-yl)hexanoic acid hydroxyamide, reference compound]",no cAMP production-suppressing action was observed,–,–,–
"CCc1ccc(OCc2ccccc2C(=O)Nc2ccc3nc(C)cc(N)c3c2)cc1.Cl [Compound 1, N-(4-Amino-2-methyl-6-quinolyl)-2-[(4-ethylphenoxy)methyl]benzamide hydrochloride]",–,decreased cAMP production via GPR142 dose-dependently,increases the FLG mRNA expression,–
"CC[C@H](C)[C@H]1O[C@]2(CC[C@@H]1C)C[C@@H]1C[C@@H](C/C=C(\C)[C@@H](O[C@H]3C[C@H](OC)[C@@H](O[C@H]4C[C@H](OC)[C@@H](O)[C@H](C)O4)[C@H](C)O3)[C@@H](C)/C=C/C=C3\CO[C@@H]4[C@H](O)C(C)=C[C@@H](C(=O)O1)[C@]34O)O2 [Compound 2, Ivermectin, reference compound]",–,–,increases the FLG mRNA expression,about 20%
